{
  "source": "ChEMBL document CHEMBL3046447",
  "about": "“Insecticidal Activity of α-Methylene-γ-butyrolactone against Several Insect Pests” (1999)",
  "assay_type_in_all_cases": "functional",
  "key": {"Frankliniella intonsa [1]": {"test_system": "Frankliniella intonsa", "assay": "Insecticidal activity against adult Frankliniella intonsa assessed as mortality at 12.5 ug/disk after 48 hr relative to control"}, "Frankliniella intonsa [2]": {"test_system": "Frankliniella intonsa", "assay": "Insecticidal activity against adult Frankliniella intonsa assessed as mortality at 25 ug/disk after 72 hr relative to control"}, "Frankliniella intonsa [3]": {"test_system": "Frankliniella intonsa", "assay": "Insecticidal activity against adult Frankliniella intonsa assessed as mortality at 12.5 ug/disk after 72 hr relative to control"}, "Plutella xylostella [4]": {"test_system": "Plutella xylostella", "assay": "Insecticidal activity against adult Plutella xylostella (diamondback moth) assessed as mortality at 60 ug/disc after 48 hr relative to control"}, "Nilaparvata lugens [5]": {"test_system": "Nilaparvata lugens", "assay": "Insecticidal activity against adult Nilaparvata lugens (brown planthopper) assessed as mortality at 60 ug/disc after 48 hr relative to control"}, "Frankliniella intonsa [6]": {"test_system": "Frankliniella intonsa", "assay": "Insecticidal activity against adult Frankliniella intonsa assessed as mortality at 12.5 ug/disk after 24 hr relative to control"}, "Plutella xylostella [7]": {"test_system": "Plutella xylostella", "assay": "Insecticidal activity against adult Plutella xylostella (diamondback moth) assessed as mortality at 60 ug/disc after 24 hr relative to control"}, "Thrips palmi [8]": {"test_system": "Thrips palmi", "assay": "Insecticidal activity against adult Thrips palmi assessed as mortality at 25 ug/disk after 24 hr relative to control"}, "[9]": {"test_system": "Frankliniella occidentalis", "assay": "Insecticidal activity against adult Frankliniella occidentalis (western flower thrips) assessed as mortality at 12.5 ug/disc after 48 hr relative to control"}, "Thrips palmi [10]": {"test_system": "Thrips palmi", "assay": "Insecticidal activity against adult Thrips palmi assessed as mortality at 25 ug/disk after 48 hr relative to control"}, "[11]": {"test_system": "Frankliniella occidentalis", "assay": "Insecticidal activity against adult Frankliniella occidentalis (western flower thrips) assessed as mortality at 37.5 ug/disc after 24 hr relative to control"}, "Plutella xylostella [12]": {"test_system": "Plutella xylostella", "assay": "Insecticidal activity against adult Plutella xylostella (diamondback moth) assessed as mortality at 600 ug/disc after 24 hr relative to control"}, "Thrips palmi [13]": {"test_system": "Thrips palmi", "assay": "Insecticidal activity against adult Thrips palmi assessed as mortality at 75 ug/disk after 24 hr relative to control"}, "Frankliniella intonsa [14]": {"test_system": "Frankliniella intonsa", "assay": "Insecticidal activity against adult Frankliniella intonsa assessed as mortality at 50 ug/disk after 72 hr relative to control"}, "Thrips palmi [15]": {"test_system": "Thrips palmi", "assay": "Insecticidal activity against adult Thrips palmi assessed as mortality at 50 ug/disk after 24 hr relative to control"}, "Frankliniella intonsa [16]": {"test_system": "Frankliniella intonsa", "assay": "Insecticidal activity against adult Frankliniella intonsa assessed as mortality at 75 ug/disk after 24 hr relative to control"}, "Spodoptera litura [17]": {"test_system": "Spodoptera litura", "assay": "Insecticidal activity against adult Spodoptera litura assessed as mortality at 600 ug/disc after 24 hr relative to control"}, "[18]": {"test_system": "Frankliniella occidentalis", "assay": "Insecticidal activity against adult Frankliniella occidentalis (western flower thrips) assessed as mortality at 37.5 ug/disc after 48 hr relative to control"}, "Nilaparvata lugens [19]": {"test_system": "Nilaparvata lugens", "assay": "Insecticidal activity against adult Nilaparvata lugens (brown planthopper) assessed as mortality at 600 ug/disc after 24 hr relative to control"}, "Plutella xylostella [20]": {"test_system": "Plutella xylostella", "assay": "Insecticidal activity against adult Plutella xylostella (diamondback moth) assessed as mortality at 600 ug/disc after 48 hr relative to control"}, "Thrips palmi [21]": {"test_system": "Thrips palmi", "assay": "Insecticidal activity against adult Thrips palmi assessed as mortality at 37.5 ug/disk after 24 hr relative to control"}, "Frankliniella intonsa [22]": {"test_system": "Frankliniella intonsa", "assay": "Insecticidal activity against adult Frankliniella intonsa assessed as mortality at 37.5 ug/disk after 24 hr relative to control"}, "Frankliniella intonsa [23]": {"test_system": "Frankliniella intonsa", "assay": "Insecticidal activity against adult Frankliniella intonsa assessed as mortality at 37.5 ug/disk after 48 hr relative to control"}, "Thrips palmi [24]": {"test_system": "Thrips palmi", "assay": "Insecticidal activity against adult Thrips palmi assessed as mortality at 12.5 ug/disk after 72 hr relative to control"}, "Nilaparvata lugens [25]": {"test_system": "Nilaparvata lugens", "assay": "Insecticidal activity against adult Nilaparvata lugens (brown planthopper) assessed as mortality at 600 ug/disc after 48 hr relative to control"}, "Frankliniella intonsa [26]": {"test_system": "Frankliniella intonsa", "assay": "Insecticidal activity against adult Frankliniella intonsa assessed as mortality at 37.5 ug/disk after 72 hr relative to control"}, "[27]": {"test_system": "Frankliniella occidentalis", "assay": "Insecticidal activity against adult Frankliniella occidentalis (western flower thrips) assessed as mortality at 75 ug/disc after 24 hr relative to control"}, "Spodoptera litura [28]": {"test_system": "Spodoptera litura", "assay": "Insecticidal activity against adult Spodoptera litura assessed as mortality at 60 ug/disc after 24 hr relative to control"}, "Thrips palmi [29]": {"test_system": "Thrips palmi", "assay": "Insecticidal activity against adult Thrips palmi assessed as mortality at 25 ug/disk after 72 hr relative to control"}, "Thrips palmi [30]": {"test_system": "Thrips palmi", "assay": "Insecticidal activity against adult Thrips palmi assessed as mortality at 12.5 ug/disk after 24 hr relative to control"}, "Spodoptera litura [31]": {"test_system": "Spodoptera litura", "assay": "Insecticidal activity against adult Spodoptera litura assessed as mortality at 60 ug/disc after 48 hr relative to control"}, "Thrips palmi [32]": {"test_system": "Thrips palmi", "assay": "Insecticidal activity against adult Thrips palmi assessed as mortality at 50 ug/disk after 48 hr relative to control"}, "Spodoptera litura [33]": {"test_system": "Spodoptera litura", "assay": "Insecticidal activity against adult Spodoptera litura assessed as mortality at 600 ug/disc after 48 hr relative to control"}, "Frankliniella intonsa [34]": {"test_system": "Frankliniella intonsa", "assay": "Insecticidal activity against adult Frankliniella intonsa assessed as mortality at 25 ug/disk after 48 hr relative to control"}, "Thrips palmi [35]": {"test_system": "Thrips palmi", "assay": "Insecticidal activity against adult Thrips palmi assessed as mortality at 12.5 ug/disk after 48 hr relative to control"}, "Thrips palmi [36]": {"test_system": "Thrips palmi", "assay": "Insecticidal activity against adult Thrips palmi assessed as mortality at 37.5 ug/disk after 48 hr relative to control"}, "Nilaparvata lugens [37]": {"test_system": "Nilaparvata lugens", "assay": "Insecticidal activity against adult Nilaparvata lugens (brown planthopper) assessed as mortality at 60 ug/disc after 24 hr relative to control"}, "[38]": {"test_system": "Frankliniella occidentalis", "assay": "Insecticidal activity against adult Frankliniella occidentalis (western flower thrips) assessed as mortality at 12.5 ug/disc after 72 hr relative to control"}, "Frankliniella intonsa [39]": {"test_system": "Frankliniella intonsa", "assay": "Insecticidal activity against adult Frankliniella intonsa assessed as mortality at 50 ug/disk after 48 hr relative to control"}, "[40]": {"test_system": "Frankliniella occidentalis", "assay": "Insecticidal activity against adult Frankliniella occidentalis (western flower thrips) assessed as mortality at 12.5 ug/disc after 24 hr relative to control"}, "Thrips palmi [41]": {"test_system": "Thrips palmi", "assay": "Insecticidal activity against adult Thrips palmi assessed as mortality at 37.5 ug/disk after 72 hr relative to control"}, "Frankliniella intonsa [42]": {"test_system": "Frankliniella intonsa", "assay": "Insecticidal activity against adult Frankliniella intonsa assessed as mortality at 25 ug/disk after 24 hr relative to control"}},
  "data": [
    {"molecule": "C=C1CCOC1=O", "note": "[TULIPALINE A]", "values": [
      {"measurement": "mortality at 12.5 µg/disc", "setting": "Frankliniella intonsa [1]", "value": 0, "unit": "%"},
      {"measurement": "mortality at 25 µg/disc", "setting": "Frankliniella intonsa [2]", "value": 48, "unit": "%"},
      {"measurement": "mortality at 12.5 µg/disc", "setting": "Frankliniella intonsa [3]", "value": 0, "unit": "%"},
      {"measurement": "mortality at 60 µg/disc", "setting": "Plutella xylostella [4]", "value": 0, "unit": "%"},
      {"measurement": "mortality at 60 µg/disc", "setting": "Nilaparvata lugens [5]", "value": 0, "unit": "%"},
      {"measurement": "mortality at 12.5 µg/disc", "setting": "Frankliniella intonsa [6]", "value": 0, "unit": "%"},
      {"measurement": "mortality at 60 µg/disc", "setting": "Plutella xylostella [7]", "value": 0, "unit": "%"},
      {"measurement": "mortality at 25 µg/disc", "setting": "Thrips palmi [8]", "value": 14, "unit": "%"},
      {"measurement": "mortality at 12.5 µg/disc", "setting": "[9]", "value": 8, "unit": "%"},
      {"measurement": "mortality at 25 µg/disc", "setting": "Thrips palmi [10]", "value": 70, "unit": "%"},
      {"measurement": "mortality at 37.5 µg/disc", "setting": "[11]", "value": 52, "unit": "%"},
      {"measurement": "mortality at 600 µg/disc", "setting": "Plutella xylostella [12]", "value": 0, "unit": "%"},
      {"measurement": "mortality at 75 µg/disc", "setting": "Thrips palmi [13]", "value": 100, "unit": "%"},
      {"measurement": "mortality at 50 µg/disc", "setting": "Frankliniella intonsa [14]", "value": 94, "unit": "%"},
      {"measurement": "mortality at 50 µg/disc", "setting": "Thrips palmi [15]", "value": 80, "unit": "%"},
      {"measurement": "mortality at 75 µg/disc", "setting": "Frankliniella intonsa [16]", "value": 100, "unit": "%"},
      {"measurement": "mortality at 600 µg/disc", "setting": "Spodoptera litura [17]", "value": 0, "unit": "%"},
      {"measurement": "mortality at 37.5 µg/disc", "setting": "[18]", "value": 100, "unit": "%"},
      {"measurement": "mortality at 600 µg/disc", "setting": "Nilaparvata lugens [19]", "value": 0, "unit": "%"},
      {"measurement": "mortality at 600 µg/disc", "setting": "Plutella xylostella [20]", "value": 50, "unit": "%"},
      {"measurement": "mortality at 37.5 µg/disc", "setting": "Thrips palmi [21]", "value": 56, "unit": "%"},
      {"measurement": "mortality at 37.5 µg/disc", "setting": "Frankliniella intonsa [22]", "value": 58, "unit": "%"},
      {"measurement": "mortality at 37.5 µg/disc", "setting": "Frankliniella intonsa [23]", "value": 66, "unit": "%"},
      {"measurement": "mortality at 12.5 µg/disc", "setting": "Thrips palmi [24]", "value": 20, "unit": "%"},
      {"measurement": "mortality at 600 µg/disc", "setting": "Nilaparvata lugens [25]", "value": 30, "unit": "%"},
      {"measurement": "mortality at 37.5 µg/disc", "setting": "Frankliniella intonsa [26]", "value": 76, "unit": "%"},
      {"measurement": "mortality at 75 µg/disc", "setting": "[27]", "value": 100, "unit": "%"},
      {"measurement": "mortality at 60 µg/disc", "setting": "Spodoptera litura [28]", "value": 0, "unit": "%"},
      {"measurement": "mortality at 25 µg/disc", "setting": "Thrips palmi [29]", "value": 90, "unit": "%"},
      {"measurement": "mortality at 12.5 µg/disc", "setting": "Thrips palmi [30]", "value": 2, "unit": "%"},
      {"measurement": "mortality at 60 µg/disc", "setting": "Spodoptera litura [31]", "value": 0, "unit": "%"},
      {"measurement": "mortality at 50 µg/disc", "setting": "Thrips palmi [32]", "value": 100, "unit": "%"},
      {"measurement": "mortality at 600 µg/disc", "setting": "Spodoptera litura [33]", "value": 20, "unit": "%"},
      {"measurement": "mortality at 25 µg/disc", "setting": "Frankliniella intonsa [34]", "value": 48, "unit": "%"},
      {"measurement": "mortality at 12.5 µg/disc", "setting": "Thrips palmi [35]", "value": 14, "unit": "%"},
      {"measurement": "mortality at 37.5 µg/disc", "setting": "Thrips palmi [36]", "value": 94, "unit": "%"},
      {"measurement": "mortality at 60 µg/disc", "setting": "Nilaparvata lugens [37]", "value": 0, "unit": "%"},
      {"measurement": "mortality at 12.5 µg/disc", "setting": "[38]", "value": 12, "unit": "%"},
      {"measurement": "mortality at 50 µg/disc", "setting": "Frankliniella intonsa [39]", "value": 70, "unit": "%"},
      {"measurement": "mortality at 12.5 µg/disc", "setting": "[40]", "value": 4, "unit": "%"},
      {"measurement": "mortality at 37.5 µg/disc", "setting": "Thrips palmi [41]", "value": 100, "unit": "%"},
      {"measurement": "mortality at 25 µg/disc", "setting": "Frankliniella intonsa [42]", "value": 34, "unit": "%"}
    ]}
  ]
}
